Assay results published in patent US20130196960A1, “Cannabinoid Receptor Agonists” (Ironwood Pharmaceuticals, Inc., priority 2010, published 2013).
Where two headings read alike, the source gives them in different places.

Assays:
human CB1 = human CB1 (Homo sapiens, UniProt P21554); assay: Human CB1 cannabinoid receptor radioligand binding assay ([3H]-CP 55,940 displacement, HEK-293 membranes)
Description: (§1) cDNA expression clones for human CB1 (hCB1, Genbank Accession No. AY225225) and human CB2 (hCB2, Genbank Accession No. AY242132) expressed in vector pcDNA3.1+ were purchased from UMR cDNA Resource Center, Rolla, Mo. (Clone ID CNR01L000 for hCB1; CNR0200000 for hCB2).
(§2) Stable, HEK-293-derived cell lines that recombinantly express hCB1 or hCB2 were established. In brief, the clone hCB1 (CNR1L) or hCB2 (CNR2) was transfected into human embryonic kidney cells (HEK-293) using Lipofectamine 2000 (Gibco, Cat#11668-019) according to the manufacturer's protocol. Transfected clones were isolated by single colony purification and clones were screened for receptor expression using a whole cell, 3H-CP 55,940 radioligand binding assay. HEK-293 stable cells were maintained in Dulbecco's modified Eagles medium (DMEM) containing 10% fetal bovine serum, 2 mM L-glutamine and 0.5 mg/mL G-418.
(§3) Membranes were isolated from transfected cells as follows. Monolayers of cultured cells were washed twice with phosphate-buffered saline (PBS). Cells were scraped into 20 mM HEPES, pH 7.4, 10 mM EDTA containing complete cocktail protease inhibitors (Roche, Catalog #11 697 498 001), and were homogenized by an electric-powered mechanical probe homogenizer (Omni GLH; probe G7-195S) for 40 seconds at 7000 rpm. Homogenates were centrifuged 10 minutes at 1000×g at 4° C. The supernatant was collected and was centrifuged for 1 hour at 40,000×g. The supernatant was then decanted and the resulting pellet was re-suspended in 20 mM HEPES, pH 7.4, 5 mM MgCl2, 1 mM EDTA, 10% sucrose with complete cocktail protease inhibitors. Protein concentration of membrane suspensions were measured by Bradford Protein Assay using bovine serum albumin as the standard (BioRad catalog #500-0006). Protein concentrations of membrane suspensions were adjusted with the final buffer in the range of 5 to 10 mg/mL and were stored at −80° C. until further use.
(§4) Radioligand binding assays were performed by incubating membranes (2-10 μg protein) prepared from HEK-293 cells expressing recombinant human cannabinoid receptors, CB1 or CB2, at room temperature with 0.5 nM cannabinoid receptor agonist, [3H]-CP 55,940 (Perkin Elmer, catalog #NET1051) in 0.2 mL of binding buffer (50 mM Tris-HCl, pH 7.5, 5 mM MgCl2, 2.5 mM EDTA) and 0.1% fatty acid free bovine serum albumin (Sigma Cat. #A0821) for 90 minutes. A rapid filtration technique using Millipore FB filter plates (Catalog #MADVNOB) and filtration apparatus (Millipore system Catalog MAVM0960R) with vacuum aspiration was used to harvest and rinse labeled membranes (8 times with 0.2 mL of chilled binding buffer). The radioactivity bound to the filters was counted with 0.05 mL of liquid scintillant (UltraGold MV, PerkinElmer catalog #6013159) in a scintillation counter (Perkin Elmer Microbeta instrument). Nonspecific binding was determined in the presence of unlabeled 1 μM CP 55,940 (Sigma Aldrich, catalog #C1112). Binding data were analyzed using GraphPad Prism (GraphPad Software, Inc. San Diego, Calif.).

human CB2 [1] = biological target: T1, human CB2 (Homo sapiens, UniProt P34972); assay: Human CB2 cannabinoid receptor radioligand binding assay ([3H]-CP 55,940 displacement, HEK-293 membranes)
T1 sequence (P34972 whole entry): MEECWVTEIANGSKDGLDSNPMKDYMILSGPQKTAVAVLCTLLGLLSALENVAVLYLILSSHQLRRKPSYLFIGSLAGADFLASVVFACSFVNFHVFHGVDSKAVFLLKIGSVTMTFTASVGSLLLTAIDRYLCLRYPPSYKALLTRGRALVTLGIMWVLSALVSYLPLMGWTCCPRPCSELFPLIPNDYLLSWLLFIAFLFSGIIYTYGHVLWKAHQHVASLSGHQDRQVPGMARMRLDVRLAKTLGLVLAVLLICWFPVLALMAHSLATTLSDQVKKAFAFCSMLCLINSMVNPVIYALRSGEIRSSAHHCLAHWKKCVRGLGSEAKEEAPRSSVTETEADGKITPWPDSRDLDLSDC
Description: as §1, §2, §3, §4

mouse = assay: Phenylbenzoquinone-induced (PBQ) writhing model; conditions: dose 30 (unit not given), route IP, P < 0.001
human CB2 [2] = biological target: T1, human CB2; assay: 35S GTPγS binding functional assay, agonist mode, hCB2 HEK-293 membranes; assay type: biochemical
Method: Functional assays which monitor G-protein coupled receptor or downstream cellular responses can be used to characterize potential CB1 receptor and/or CB2 receptor agonist or antagonist activities. Direct activation (or inhibition of activation) can be monitored using a GTPγS assay (membrane-based assay) or cAMP assay (whole cell-based assay).
^35S GTPγS binding assays were performed by incubating recombinant cell membranes prepared above (5 μg) in the presence of scintillation proximity assay beads (SPA beads, Catalog #RPNQ0252 GE Healthcare, Buckinghamshire, England) in GTPγS binding buffer [50 mM HEPES (pH 7.4), 100 mM NaCl, 5 mM MgCl2, 0.001% saponin (Sigma catalog #S4521)] supplemented with 20 uM GDP (Sigma catalog #G7127) in the presence or absence of test compound. The reaction was carried out in 96-well microplates with 0.1 nM [^35S]GTPγS (specific activity=1250 Ci/mmol; Perkin Elmer catalog #NEG030X250UC) in a final volume of 100 uL. After a 90 min room temperature incubation, the reaction was analyzed using a scintillation counter (Perkin Elmer Microbeta instrument). Binding data were analyzed using GraphPad Prism.

[3] = read-out: hCB1 IC50 (CP displ, nM, HEK), CP 55,940 displacement, HEK-293 membranes
[4] = read-out: hCB2 IC50 (CP displ, nM, HEK), CP 55,940 displacement, HEK-293 membranes
[5] = GTPγS agonist mode, HEK-293 membranes, read-out: hCB2 EC50 (GTPyS ag, nM, HEK)
[6] = CP 55,940 displacement, HEK-293 membranes, read-out: hCB1 IC50 (CP displ, nM, HEK)
[7] = CP 55,940 displacement, HEK-293 membranes, read-out: hCB2 IC50 (CP displ, nM, HEK)
[8] = read-out: hCB2 EC50 (GTPyS ag, nM, HEK), GTPγS agonist mode, HEK-293 membranes

human CB1, sequence (P21554 whole entry): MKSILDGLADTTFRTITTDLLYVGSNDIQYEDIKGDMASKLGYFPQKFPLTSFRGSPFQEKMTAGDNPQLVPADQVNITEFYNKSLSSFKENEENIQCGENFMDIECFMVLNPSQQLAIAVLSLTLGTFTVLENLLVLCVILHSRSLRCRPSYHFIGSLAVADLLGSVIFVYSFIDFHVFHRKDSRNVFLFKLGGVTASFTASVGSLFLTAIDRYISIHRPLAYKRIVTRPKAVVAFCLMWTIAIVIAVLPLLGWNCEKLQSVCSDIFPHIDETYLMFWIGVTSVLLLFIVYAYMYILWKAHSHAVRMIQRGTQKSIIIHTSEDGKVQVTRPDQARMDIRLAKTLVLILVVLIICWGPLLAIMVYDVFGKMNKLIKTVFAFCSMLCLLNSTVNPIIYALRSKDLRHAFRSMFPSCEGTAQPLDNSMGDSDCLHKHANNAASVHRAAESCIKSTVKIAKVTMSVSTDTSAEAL

Compound	IC50 (human CB1; [3]) [nM]	IC50 (human CB2 [1]; [4]) [nM]	EC50 (human CB2 [2]; [5]) [nM]	other results
Cc1c(C(=O)c2cccc(Cl)c2Cl)c2ccsc2n1CCN1CCOCC1 [Compound I-1, (2,3-dichlorophenyl)(5-methyl-6-(2-morpholinoethyl)-6H-thieno[2,3-b]pyrrol-4-yl)methanone]				IC50 (human CB1): 1000 to 10000 nM; IC50 (human CB2 [1]): < 100 nM; Number of Writhes (mouse): 1.5 ± 0.79; EC50 (human CB2 [2]): < 100 nM
CCCn1c(C)c(C(=O)c2cccc(Cl)c2Cl)c2ccsc21 [Compound I-2]	> 10000	100 to 1000	< 100	
Cc1c(C(=O)c2cccc(Cl)c2Cl)c2scnc2n1CCN1CCOCC1 [Compound I-3]	1000 to 10000	< 100	< 100	
CCCn1c(C)c(C(=O)c2cccc(Cl)c2Cl)c2scnc21 [Compound I-4]	> 10000	100 to 1000	< 100	
Cc1c(C(=O)c2cccc(Cl)c2Cl)c2sccc2n1CCN1CCOCC1 [Compound I-5]	1000 to 10000	< 100	< 100	
CCCn1c(C)c(C(=O)c2ccccc2)c2ccsc21 [Compound I-7]				IC50 (human CB1; [6]): > 10000 nM; IC50 (human CB2 [1]; [7]): > 10000 nM
Cc1c(C(=O)C2C(C)(C)C2(C)C)c2ccsc2n1CCN1CCOCC1 [Compound I-8]	1000 to 10000	100 to 1000	< 100	
Cc1c(C(=O)c2cccc(Cl)c2Cl)c2ccsc2n1CCC1CCOCC1 [Compound I-9]	100 to 1000	< 100	< 100	
COCCn1c(C)c(C(=O)c2cccc(Cl)c2Cl)c2ccsc21 [Compound I-10]	> 10000	100 to 1000	100 to 1000	
Cc1c(C(=O)c2cccc(F)c2F)c2ccsc2n1CCN1CCOCC1 [Compound I-11]	> 10000	1000 to 10000	100 to 1000	
Cc1c(C(=O)c2cccc(Cl)c2)c2ccsc2n1CCN1CCOCC1 [Compound I-12]	1000 to 10000	1000 to 10000		
Cc1c(C(=O)c2cccc3c2OCC3)c2ccsc2n1CCN1CCOCC1 [Compound I-14]	1000 to 10000	100 to 1000	100 to 1000	
Cc1c(C(=O)c2ccc(Cl)cc2Cl)c2ccsc2n1CCN1CCOCC1 [Compound I-15]	> 10000	100 to 1000	100 to 1000	
Cc1c(C(=O)c2cccc(Cl)c2Cl)c2ccsc2n1CCN1CCCCC1 [Compound I-17]	1000 to 10000	< 100	< 100	
Cc1c(C(=O)c2cccc(Cl)c2Cl)c2ccsc2n1CC(=O)N1CCOCC1 [Compound I-18]	> 10000	100 to 1000		EC50 (human CB2 [2]; [8]): 100 to 1000 nM
Cc1c(C(=O)c2cccc(Cl)c2Cl)c2cc(Cl)sc2n1CCN1CCOCC1 [Compound I-19]	1000 to 10000	< 100	100 to 1000	
Cc1c(C(=O)c2cccc(Cl)c2Cl)c2ccsc2n1CC1CCCCN1C (centres unmarked) [Compound I-20]	< 100	< 100	< 100	
CCS(=O)(=O)n1c(C)c(C(=O)c2cccc(Cl)c2Cl)c2ccsc21 [Compound I-21]				IC50 (human CB1; [6]): > 10000 nM; IC50 (human CB2 [1]; [7]): 1000 to 10000 nM
Cc1c(C(=O)c2cccc(Cl)c2Cl)c2ccsc2n1CCC1CCN(C(=O)OC(C)(C)C)CC1 [Compound I-22]				IC50 (human CB1; [6]): > 10000 nM; IC50 (human CB2 [1]; [7]): > 10000 nM
Cc1c(C(=O)c2cccc(Cl)c2Cl)c2ccsc2n1CC1CCOCC1 [Compound I-23]	1000 to 10000	< 100	< 100	
Cc1c(C(=O)C2CCCCC2)c2ccsc2n1CCN1CCOCC1 [Compound I-24]	1000 to 10000	100 to 1000	100 to 1000	
Cc1c(C(=O)c2cccc(Cl)c2Cl)c2ccsc2n1CCC1CCN(C)CC1 [Compound I-25]	> 10000	> 10000		
CCCOc1ccccc1C(=O)c1c(C)n(CCN2CCOCC2)c2sccc12 [Compound I-27]	> 10000	1000 to 10000		
Cc1c(C(=O)c2cccnc2Cl)c2ccsc2n1CCN1CCOCC1 [Compound I-28]	> 10000	1000 to 10000		
CCn1c(C)c(C(=O)c2cccc(Cl)c2Cl)c2ccsc21 [Compound I-30]	> 10000	1000 to 10000		EC50 (human CB2 [2]; [8]): 100 to 1000 nM
Cc1c(C(=O)c2ccccc2)c2ccsc2n1CCN1CCOCC1 [Compound I-31]	> 10000	> 10000		
